# Results as given in patent publication US12139491B2, “Diketopiperazine derivatives as calcium ATPase inhibitor for enhancing anticancer activity” (HOLOSMEDIC, priority 2018, dated 2024).
# Key:
# [1] = tested on: cancer stem cell-like stomach cancer cells derived from patients with relapse and metastasis after irinotecan administration; assay: Irinotecan activity enhancement in irinotecan-resistant stomach cancer cells (cell number); format: cell-based, human; settings: FIG. 4
# Protocol: After cancer stem cell-like stomach cancer cells derived from patients with relapse and metastasis after irinotecan administration were treated with the compound of Preparation Example 1-1 only (170 nM); irinotecan only (8.9 μM); or a combination of irinotecan (4.5 μM) and the compound of Preparation Example 1-1 (75 nM), a change in cell number over treatment time was measured, and the result is shown in FIG. 4.
# [2] = tested on: cancer stem cell-like stomach cancer cells derived from patients with relapse and metastasis after irinotecan administration, xenografted; assay: Tumor volume and weight in stomach cancer cell xenograft mouse
# [3] = tested on: cancer stem cell-like thyroid cancer cells derived from patients with relapse and metastasis after paclitaxel administration; assay: Paclitaxel activity enhancement in paclitaxel-resistant thyroid cancer cells (cell number, viability); format: cell-based, human
# Protocol: After cancer stem cell-like thyroid cancer cells derived from patients with relapse and metastasis after paclitaxel administration (ATC) were treated with a compound of Preparation Example 1-1 (150 nM) only; paclitaxel (12 nM) only; or a combination of paclitaxel (5 nM) and a compound of Preparation Example 1-1 (70 nM), a change in number of cells over time was confirmed. In addition, a change in cell viability according to a treatment concentration of paclitaxel, the compound of Preparation Example 1-1, or the combination of paclitaxel and the compound of Preparation Example 1-1 is shown in FIG. 1. In addition, the change in cell viability according to the treatment concentration of paclitaxel, the compound of Preparation Example 1-1 and the combination thereof was measured, and the result is shown in FIG. 2.
# [4] = tested on: cancer stem cell-like thyroid cancer cells derived from patients with relapse and metastasis after paclitaxel administration, xenografted; assay: Tumor volume in thyroid cancer cell xenograft mouse; format: in vivo, BALB/c nude female mouse; settings: 60 days, FIG. 3
# Protocol: After cancer stem cell-like thyroid cancer cells derived from patients with relapse and metastasis after paclitaxel administration were cultured in vitro, the cultured cells were injected subcutaneously into the upper left flank of a BALB/c nude female mouse to be 2.0×10^7 cells/mouse. […] The mice were anesthetized to measure a change in tumor volume daily using calipers for 60 days, and the result is shown in FIG. 3. The tumor volume was evaluated using the following Equation 1. Tumor volume=L×S^2/2 [Equation 1] • (however, L is the longest diameter, and S is the shortest diameter)
# [5] = tested on: SKOV3-TR (paclitaxel-resistant epithelial ovarian cancer cell line); assay: Cell morphology and viability (ImageJ living cell count) in SKOV3-TR; format: cell-based; settings: paclitaxel 5 μM; morphological analysis
# Protocol: (§1) To confirm the anticancer therapeutic activity enhancing effects of the compounds of Preparation Examples, the compounds or salts prepared in Preparation Examples 1-1 to 31 (hereinafter, the compounds of Preparation Examples) were used, and cellular experiments were carried out with an epithelial ovarian cancer cell line SKOV3 and SKOV3-TR derived therefrom and produced as a resistant cell line having resistance to a paclitaxel anticancer agent. […]
# (§2) For the morphological analysis of the cells, 24, 48 and 72 hours after paclitaxel treatment, images of cells treated with “None (untreated sample)”, “DMSO (paclitaxel solvent)”, “ethanol (solvent for the compounds of Preparation Examples)”, “paclitaxel”, “paclitaxel+ethanol”, and “paclitaxel+the compound of Preparation Example 1-2 (L19001)” were obtained. In addition, for the analysis of cell viability, 72 hours after treatment with paclitaxel or the compound of each Preparation Example only, or co-treatment with paclitaxel and the compound of each Preparation Example, the number of living cells was measured through Image J analysis.
# (§3) The cell viability of the two types of cancer cell lines was analyzed by measuring the number of living cells using the ImageJ program.
# [6] = tested on: SKOV3 (epithelial ovarian cancer cell line); assay: Cell morphology and viability (ImageJ living cell count) in SKOV3; format: cell-based; settings: paclitaxel 0.2 μM; morphological analysis
# Protocol: as §1, §2, §3
# [7] = tested on: cancer stem cell-like colorectal cancer cells derived from patients with relapse and metastasis after radiation therapy; assay: Radiation treatment activity enhancement in radiation-resistant colorectal cancer cells (cell number); format: cell-based, human; settings: compound (75 nM) and X-rays at 5 Gy; FIG. 8
# Protocol: After cancer stem cell-like colorectal cancer cells derived from patients with relapse and metastasis after radiation therapy were treated with the compound of Preparation Example 1-1 (150 nM) only; Faxitron X-rays (Faxitron Bioptics, AZ, USA) at an intensity of 5 Gy (RT); or the compound of Preparation Example 1-1 (75 nM) and the X-rays at an intensity of 5 Gy, the change in number of cancer cells over treatment time was measured, and the result is shown in FIG. 8.
# [8] = tested on: cancer stem cell-like colorectal cancer cells derived from patients with relapse and metastasis after radiation therapy, xenografted; assay: Tumor volume and weight in colorectal cancer cell xenograft mouse; format: in vivo, BALB/c nude female mouse; settings: oral compound (27 mg/kg) and X-rays at 5 Gy
# Protocol: (§4) After cancer stem cell-like colorectal cancer cells, which were derived from patients with relapse and metastasis after radiation therapy, were cultured in vitro, the cultured cells were injected subcutaneously into the upper left flank of a BALB/c nude female mouse to be 2.0×10^7 cells/mouse. […] The mice were anesthetized to measure a change in tumor volume daily using calipers for 40 days, and the result is shown in FIG. 9. The tumor volume was calculated by the above-described Equation 1. In addition, after 40 days, a tumor weight was measured, and the result is shown in FIG. 10, and for 41 days, the body weight of the mouse was measured, and the result is shown in FIG. 11.
# [9] = Body weight of colorectal cancer cell xenograft mice; format: in vivo, BALB/c nude female mouse; settings: 41 days, compared with negative control, stated as no toxicity problem, FIG. 11
# Protocol: as §4
# [10] = Body weight of stomach cancer cell xenograft mice; settings: 41 days, compared with negative control, stated as no toxicity problem, FIG. 7
smiles,measurement,setting,value
"CCc1c2c(nc3ccc(OC(=O)N4CCC(N5CCCCC5)CC4)cc13)-c1cc3c(c(=O)n1C2)COC(=O)[C@]3(O)CC [irinotecan, reference compound]",change in number of cancer cells,"[1]; irinotecan only (8.9 μM), compared with negative control",no change
same,change in tumor weight,"[2]; oral irinotecan (75 mg/kg) only, after 40 days, compared with negative control, FIG. 6",no change
"CC(=O)O[C@H]1C(=O)[C@@]2(C)[C@H]([C@H](OC(=O)c3ccccc3)[C@]3(O)C[C@H](OC(=O)[C@H](O)[C@@H](NC(=O)c4ccccc4)c4ccccc4)C(C)=C1C3(C)C)[C@]1(OC(C)=O)CO[C@@H]1C[C@@H]2O [paclitaxel, reference compound]",change in cancer cell number,"[3]; paclitaxel (12 nM) only, compared with negative control, FIG. 1",no change
same,viability of cancer cells,"[3]; paclitaxel only, compared with negative control, FIG. 2",no change
same,change in tumor volume,"[4]; intraperitoneal paclitaxel (25 mg/kg) only, compared with negative control",no change
same,number of living cells (induction of cell death and inhibition of cell growth),[5],decrease
same,number of living cells (induction of cell death and inhibition of cell growth),[6],decrease
"CCc1oc2ccccc2c1CN1CCN2C(=O)CNC(=O)C2C1 (centres unmarked) [Preparation Example 1-1, 2-((2-ethylbenzofuran-3-yl)methyl)hexahydro-2H-pyrazino[1,2-a]pyrazine-6,9-dione]",number of stem cell-like thyroid cancer cells,"[3]; combination of paclitaxel (5 nM) and compound (70 nM), FIG. 1",remarkably decreased
same,cell viability of stem cell-like thyroid cancer cells,"[3]; combination of paclitaxel and compound, FIG. 2",remarkably decreased
same,tumor volume,[4]; oral compound (27 mg/kg) then intraperitoneal paclitaxel (11 mg/kg),remarkably decreased
same,number of cancer cells,[1]; combination of irinotecan (4.5 μM) and compound (75 nM),remarkably decreased
same,number of cancer cells,[7],remarkably decreased
same,tumor volume,"[8]; 40 days, FIG. 9",remarkably decreased
same,tumor weight,"[8]; after 40 days, FIG. 10",remarkably decreased
same,change in body weight of the mouse,[9]; oral compound (27 mg/kg) in combination with radiation therapy (5 Gy),no change
same,change in body weight of the mouse,[9]; oral compound (60 mg/kg) only,no change
same,change in body weight of the mouse,[10]; oral compound (32 mg/kg) in combination with irinotecan (55 mg/kg),no change
same,change in body weight of the mouse,[10]; oral compound (70 mg/kg) alone,no change
same,tumor volume,"[2]; oral compound (32 mg/kg) and irinotecan (55 mg/kg), 40 days, FIG. 5",remarkably decreased
same,tumor weight,"[2]; oral compound (32 mg/kg) and irinotecan (55 mg/kg), after 40 days, FIG. 6",remarkably decreased
